Measured values taken from patent US20080262047A1, “Ppar-Gamma Agonists for Improvement of Cognitive Function in Apoe4 Negative Patients” (priority 2005, published 2008).
“Also recorded” adds a separate entry of the source.

Experiments:
AD and MCI = conditions: clinical trial; cited from earlier work
[1] = tested on: patients diagnosed with mild to moderate AD; test: CIBIC+ (Clinician's Interview-Based Impression of Change with caregiver information) in Alzheimer's patients; assay type: in vivo, human
Protocol: (§1) Analysis for the full intent to treat (ITT) population was performed on 511 subjects who were randomly allocated into one of four specific treatment regimes. Genotyping analysis was performed on 63% (323/511) of the ITT population.
(§2) Patient population included Caucasian males and females between 50-85 years of age who had been diagnosed with mild to moderate AD, were not receiving any medications which could adversely prejudice the study (e.g. PPAR-gamma agonists or conventional AD medicaments) or had any other potentially prejudicial ailments (e.g. diabetes or major psychiatric disorders).
(§3) Patients received either placebo or one of three dosage levels of extended release rosiglitazone provided once daily (2 mg, 4 mg and 8 mg tablets as described in Example 1). Patients were examined using the cognitive Alzheimer's Disease Assessment Scale (ADAS-cog; for further information see Rosen W G et al. Am. J. Psychiatry. 1984 141:1356-1364) and the Clinician's Interview-Based Impression of Change with caregiver information (CIBIC+; for further information see Knopman D S et al. Neurology 1994 44: 2315-2321); and secondary assessments were performed using: the Disability Assessment for Dementia (DAD, for further information see Gelinas L et al. Am J Occup Ther 1999 53: 471-81) and the Neuropsychiatric Inventory test (NPI, for further information see Cummings et al (1994) Neurology 44, 2308-2314) at the start of the study (baseline) and during the course of the study (after 8, 16 and 24 weeks of treatment).
(§4) APOE genotype was determined using the TaqMan PCR-based method of McLeod et al 2001 infra.
(§5) All statistics reflect last observed assessment carried forward (LOCF) measurements.
Higher CIBIC+ scores indicate a greater level of decline with scores below 4 denoting clinical improvement and scores above 4 denoting clinical decline.

dopaminergic cells = conditions: acetaldehyde, MPTP; cited from earlier work
[2] = tested on: patients diagnosed with mild to moderate AD; test: ADAS-cog (cognitive Alzheimer's Disease Assessment Scale) in Alzheimer's patients; assay type: in vivo, human; conditions: for Cognitive function (ADAS-cog), in words / ADAS-cog change, in words: 24 weeks; for ADAS-cog change from baseline (FIG. 3), in words: course of the study
Protocol: as §1, §2, §3, §4, §5
It should be noted that in the case of ADAS-cog higher scores indicate reduced cognitive function.

[3] = tested on: patients diagnosed with mild to moderate AD; test: Disability Assessment for Dementia (DAD) in Alzheimer's patients; assay type: in vivo, human; conditions: week 24
Protocol: as §3
Similar results were identified using the Disability Assessment for Dementia (DAD) test (Gelinas L et al. Am J Occup Ther 1999 53: 471-81). A prospectively defined test for interaction between APOE4 carriage status and DAD scores at week 24 was significant (P=0.006).

[4] = tested on: patients diagnosed with mild to moderate AD; test: Neuropsychiatric Inventory (NPI) test in Alzheimer's patients; assay type: in vivo, human; conditions: week 24
Protocol: as §3
Similar results were identified using the Neuropsychiatric Inventory (NPI) test (Cummings et al (1994) Neurology 44, 2308-2314). A prospectively defined test for interaction between APOE4 carriage status and NPI scores at week 24 was significant ([…]).

[5] = tested on: individuals with mild cognitive impairment; conditions: at three years; cited from earlier work
[6] = tested on: patients with moderate to severe AD; conditions: cited from earlier work

SMILES: CS(=O)(=O)c1ccc(C2=C(c3ccccc3)C(=O)OC2)cc1 [rofecoxib]
- Efficacy in AD and MCI (AD and MCI): failed to show any efficacy

SMILES: CN(CCOc1ccc(CC2SC(=O)NC2=O)cc1)c1ccccn1 (stereo not drawn) [Rosi, 5-[4-[2-(N-methyl-N-(2-pyridyl)amino)ethoxy]benzyl]thiazolidine-2,4-dione]
- CIBIC+, in words ([1]; APOE4 heterozygotes, 2 mg, 24 weeks): decline
- CIBIC+, in words ([1]; APOE4 heterozygotes, 4 mg, 24 weeks): Less decline
- CIBIC+, in words ([1]; APOE4 heterozygotes, 8 mg, 24 weeks): slight improvement
- CIBIC+, in words ([1]; APOE4 homozygotes, 24 weeks, compared to placebo): slight improvement
- CIBIC+, in words ([1]; APOE4− patients, 24 week period): slight improvement
- CIBIC+ difference between treatment groups and placebo, in words ([1]; ITT population, 24 weeks): did not lead to a distinguishable difference
- CIBIC+ model adjusted, LSMean (SE) ([1]; Table 13a (updated analysis, additional subjects), PGx ITT population, APOE4 copies 1, Rosi 8 mg (n = 23), after 24 weeks): 3.70 (0.24)
- Protection of dopaminergic cells from toxic insults (dopaminergic cells): can protect dopaminergic cells
- ADAS-cog change from baseline (FIG. 2), in words ([2]; APOE4+ individuals, 2 mg, 4 mg or 8 mg, after 8 weeks): slight improvement
- ADAS-cog change from baseline (FIG. 2), in words ([2]; APOE4+ individuals, 2 mg, after 16 weeks): greater decline than the placebo
- ADAS-cog change from baseline (FIG. 2), in words ([2]; APOE4+ individuals, 4 mg and 8 mg, after 16 weeks, versus placebo): the same or better clinical status
- ADAS-cog change from baseline (FIG. 2), in words ([2]; APOE4+ individuals, all three treatment arms, after 24 weeks): finish with a clinical decline
- Cognitive function (ADAS-cog), in words ([2]; APOE4 heterozygotes (single APOE4 allele), listed as rosiglitazone): do not show any recognisable trend; also recorded: stabilisation in cognitive function
- ADAS-cog change, in words ([2]; APOE4 heterozygotes, 2 mg): some decline
- ADAS-cog change, in words ([2]; APOE4 heterozygotes, 4 mg and 8 mg): little change
- ADAS-cog change from baseline (FIG. 3), in words ([2]; APOE4 heterozygotes, higher doses (4, 8 mg)): remained close to the baseline
- Cognitive function (ADAS-cog), in words ([2]; APOE4 homozygotes (two APOE4 alleles), listed as rosiglitazone): relatively large positive change in ADAS-cog scores; also recorded: may experience a clinical decline
- ADAS-cog change from baseline (FIG. 3), in words ([2]; APOE4 homozygotes): experienced a clinical decline
- ADAS-cog change from baseline (FIG. 2), in words ([2]; APOE4− individuals, 2 mg, 4 mg or 8 mg, all time points (8, 16 and 24 weeks)): marked improvement
- Cognitive function (ADAS-cog), in words ([2]; APOE4− patients (no APOE4 allele), listed as rosiglitazone): general trend of improvement in cognitive function; also recorded: clinically relevant improvement in cognitive function relative to placebo
- ADAS-cog effect of treatment, in words ([2]; ITT population as a whole, 2, 4, 8 mg, listed as rosiglitazone): trend is not statistically significant; also recorded: non-statistically significant trend to a general improvement
- DAD, in words ([3]; APOE4+ subjects): demonstrated no improvement
- DAD, in words ([3]; APOE4− subjects): demonstrated improvement on DAD
- NPI, in words ([4]; APOE4+ subjects): demonstrated no improvement
- NPI, in words ([4]; APOE4− subjects): demonstrated improvement on NPI

SMILES: CCc1ccc(CCOc2ccc(CC3SC(=O)NC3=O)cc2)nc1 (stereo not drawn) [pioglitazone, 5-[4-[2-(5-ethyl-2-pyridyl)ethoxy]benzyl]thiazolidine-2,4-dione]
- Protection of dopaminergic cells from toxic insults (dopaminergic cells): can protect dopaminergic cells

SMILES: COc1cc2c(cc1OC)C(=O)C(CC1CCN(Cc3ccccc3)CC1)C2 (stereo not drawn) [donepezil]
- Rate at which patients developed AD [5]: no separation between groups

SMILES: CC12CC3CC(C)(C1)CC(N)(C3)C2 [memantine]
- Adverse effects [6]: low incidence of adverse effects
- Rate of deterioration [6]: significantly retard the rate of deterioration
